Biological target: Protein Kinase C beta 2 (PKCβII) (Homo sapiens (Human), UniProt P05771)
Experiment: Protein Kinase C beta 2 (PKCβII) coupled PK/LDH spectrophotometric kinase assay
Type: biochemical
Settings: apparent Ki, ATP-competitive model (Morrison equation); 5 nM PKC, 0.1 mM ATP, 0.15 mM peptide, 30° C., pH 7.4; read-out: Ki app
Method: Protein Kinase C beta 2 (PKCβII) catalyzes the production of ADP from ATP that accompanies the phosphoryl transfer to the PKC Pseudosubstrate peptide (A→S, RFARKGSLRQKNV). This transfer is coupled to the oxidation of β-NADH through the activities of Pyruvate Kinase (PK) and Lactate Dehydrogenase (LDH). β-NADH conversion to NAD+ is monitored by the decrease in absorbance at 340 nm (e=6.22 cm^−1 mM^−1) using a Molecular Devices SPECTRA max PLUS spectrophotometer. […]
Steady-state kinetic parameters for the bi-bi kinase reaction were determined at saturating phospho-acceptor peptide substrate concentration (0.15 mM) by fitting initial velocity data to the Michaelis-Menten equation, v=Vmax[S]/(KM[S]) where v is the measured initial velocity, Vmax is the maximal enzyme velocity, [S] is the ATP substrate concentration, and KM is the Michealis constant for ATP. Enzyme turnover values (kcat) were calculated according to […], where [E] is the total enzyme concentration. Enzyme inhibition constants (apparent Ki values) were determined by fitting initial velocities at variable inhibitor concentrations to a model for ATP competitive inhibition based on the Morrison equation). […]

Protein Kinase C beta 2 (PKCβII), sequence (P05771 other isoform, or with tags, fused parts or gaps): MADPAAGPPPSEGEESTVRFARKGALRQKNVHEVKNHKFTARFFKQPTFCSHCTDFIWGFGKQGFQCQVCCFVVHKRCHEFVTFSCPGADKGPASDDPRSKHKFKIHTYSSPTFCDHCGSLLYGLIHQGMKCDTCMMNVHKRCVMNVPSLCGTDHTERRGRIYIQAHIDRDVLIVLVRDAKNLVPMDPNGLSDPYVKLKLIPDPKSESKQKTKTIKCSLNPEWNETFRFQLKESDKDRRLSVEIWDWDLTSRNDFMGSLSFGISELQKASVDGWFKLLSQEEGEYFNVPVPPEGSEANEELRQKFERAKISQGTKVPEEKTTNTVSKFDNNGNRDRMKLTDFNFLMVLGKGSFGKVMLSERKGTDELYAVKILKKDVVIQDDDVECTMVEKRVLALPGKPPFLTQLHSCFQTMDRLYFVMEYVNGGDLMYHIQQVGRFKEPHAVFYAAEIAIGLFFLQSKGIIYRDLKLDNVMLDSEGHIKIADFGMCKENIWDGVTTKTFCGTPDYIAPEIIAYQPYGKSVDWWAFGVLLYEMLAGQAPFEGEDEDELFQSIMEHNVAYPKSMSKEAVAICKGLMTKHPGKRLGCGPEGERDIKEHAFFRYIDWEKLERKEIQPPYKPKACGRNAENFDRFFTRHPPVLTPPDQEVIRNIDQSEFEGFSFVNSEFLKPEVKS

Row | Structure (SMILES) | Ki [nM]
1 | COCc1ncc(F)c(Nc2n[nH]c3c2CN(C(=O)N2CC(CCO)N(C)C[C@@H]2C)C3(C)C)n1 (single isomer, unassigned) [Example N3] | 15.6
2 | CCOc1ncc(F)c(Nc2n[nH]c3c2CN(C(=O)N2C[C@@H](C)N(C)C[C@@H]2C)C3(C)C)n1 [Example K1, N-(2-ethoxy-5-fluoropyrimidin-4-yl)-6,6-dimethyl-5-{[(2S,5R)-2,4,5-trimethylpiperazin-1-yl]carbonyl}-1,4,5,6-tetrahydropyrrolo[3,4-c]pyrazol-3-amine] | 1.12

— patent US11220518B2, “Substituted n-pyrimidin-4-yl-3-amino-pyrrolo[3,4-c]pyrazoles as protein kinase C inhibitors” (PFIZER INC., priority 2007, dated 2022)
